Test results from US20180244629A1, “Compounds And Compositions For The Treatment Of Cancer” (The Broad Institute, Inc., priority 2013, published 2018).
Read-outs that look alike come from different tables or passages of the source. One block for each compound: values may come before it.

Experiments:
A549 cells = assay: A549 Cytotoxicity Assay (Cell Titer Glo viability); assay type: cell-based
Protocol: (§1) A549 Cytotoxicity Assay Protocol. Day 0: A549 cells (ATCC, A549 CCL-185) are grown to 95% confluence in RPMI, 10% FBS/Pen/Strep/L-Glutamine. Day 1: Plate cells (1000 per well) in 40 μl culturing media using Corning 384-well plates (3570), incubate in standard TC conditions (5% CO2, 95% humidity, 37° C.) for 24 h. Day 2: Dilute each concentration of a half-log serial dilution of compound (1 mM-100 nM) 1:200 in culturing media and add […] (50 μl total volume) of that dilution to designated wells (8 replicates per concentration). The final dilution will be 1000×([…]). Day 4: Remove plate from incubator to cool for 20 minutes to room temperature. Add 40 μl of a 25% Promega Cell Titer Glo solution (diluted 1:3 with room temperature PBS) with Thermo combi or multichannel and incubate for 10 min. Read on Perkin-Elmer EnVision with US LUM settings for 0.1 second per well.
A549 Assay Protocol. Day 0: A549 cells (ATCC) are grown in a Triple flask (NUNC) to ˜95% confluence (TrypLE Phenol Red free) and resuspended for dispensing at 25,000 cells/mL of DMEM, 10% FBS/Pen/Strep/L-Glutamine (using the TAP Compact SelecT automated cell culture system). Day 1: Plate cells at 1000 per well in 40 uL media (DMEM/10% FBS/Pen/Strep/L-Glutamine) using Corning 8867BC 384 well plates; incubate in standard TC conditions (5% CO2; 95% humidity, 37° C.) for 24 hours (Compact SelecT). Day 2: Add 100 nL compound per well at dose into 40 uL assay volume using a pin tool (CyBi Well). Pin 100 nL cytotoxic compounds, mitoxantrone (CID 4212) to positive control wells to a final concentration of 10 μM (100 nL 4 mM DMSO stock). Incubate for […] at 37° C. in Liconic incubator, 95% humidity 5% CO2. Day 4: Remove plate from incubator, cool for 15 minutes to room temperature; add 20 μL 50% Promega CellTiterGlo (diluted 1:1 with PBS, pH 7.4) with Thermo Combi. Incubate at room temperature for 5 minutes. Read plates on Perkin-Elmer EnVision with standard luminescence settings for 0.1 sec per well.
(§2) Compounds as shown were tested against various cells lines in vitro according to the methods described herein. Cells are plated in 384-well format in a total volume of 40 μl. Indicated compound concentrations were added 24 hrs after plating the cells. After 48 hrs cell viability was determined using Cell Titer Glo® Luminescent Cell Viability Assay.
as §2, with “Known PDE3 inhibitors” for “Compounds”, “shown below” for “shown”

H1563 = H1563 cell line viability (Cell Titer Glo); assay type: cell-based; settings: Homo sapiens, NCI-H1563; n = 2; read-out: Potency (EC50) H1563
Protocol: as §2

PDE3 = settings: reference value; read-out: PDE3 activity (ref); cited from earlier work
HeLa cells = assay: HeLa Cytotoxicity Assay (Cell Titer Glo viability); assay type: cell-based
Protocol: HeLa Cytotoxicity Assay Protocol: Day 0: HeLa cells (ATCC, HeLa CCL-2) are grown to 95% confluence in DMEM, 10% FBS/Pen/Strep/L-Glutamine. Day 1: Plate cells (1000 per well) in 40 μl culturing media using Corning 384-well plates (3570), incubate in standard TC conditions (5% CO2, 95% humidity, 37 degrees C.) for 24 hours. Day 2: Dilute each concentration of a half-log serial dilution of compound (1 mM-100 nM) 1:200 in culturing media and add 10 μl (50 μl total volume) of that dilution to designated wells (8 replicates per concentration). The final dilution will be 1000×(1 μM-100 pM). Day 4: Remove plate from incubator to cool for 20 minutes to room temperature. Add 40 μl of a 25% Promega Cell Titer Glo solution (diluted 1:3 with room temperature PBS) with Thermo combi or multichannel and incubate for 10 minutes. Read on Perkin-Elmer EnVision with US LUM settings for 0.1 second per well.
as §2
as §2, with “Known PDE3 inhibitors” for “Compounds”, “shown below” for “shown”

COLO741 cells = assay: COLO741 Assay (Cell Titer Glo viability); assay type: cell-based; settings: Homo sapiens
Protocol: as §1, with “C0L0741” for “A549 Cytotoxicity”, “C0L0741” for “A549”, “(ECACC, C0L0741 93052621)” for “(ATCC, A549 CCL-185)”, “(1500” for “(1000”, “minutes.” for “min.”
as §2

H2122 cells = assay: H2122 Assay (Cell Titer Glo viability); assay type: cell-based; settings: Homo sapiens
Protocol: Selective toxicity in cell line panel. H2122 Assay Protocol Day 0: H2122 cells (ATCC, H2122 CCL-5985) are grown to 95% confluence in RPMI, 10% FBS/Pen/Strep/L-Glutamine. Day 1: Plate cells (750 per well) in 40 μl culturing media using Corning 384-well plates (3570), incubate in standard TC conditions (5% CO2, 95% humidity, 37 degrees C.) for 24 h. Day 2: Dilute each concentration of a half-log serial dilution of compound (1 mM-100 nM) 1:200 in culturing media and add 10 μl (50 μl total volume) of that dilution to designated wells (8 replicates per concentration). The final dilution will be 1000×([…]). Day 4: Remove plate from incubator to cool for 20 minutes to room temperature. Add 40 μl of a 25% Promega Cell Titer Glo solution (diluted 1:3 with room temperature PBS) with Thermo combi or multichannel and incubate for 10 minutes. Read on Perkin-Elmer EnVision with US LUM settings for 0.1 second per well.
as §2

[1] = Homo sapiens, A549, n = 2, read-out: Potency (EC50) A549
[2] = COLO-741, Example 18, Mean ± SD (n = 3), read-out: Potency (EC50 nM) COLO741
[3] = Homo sapiens, HeLa, Example 18, Mean ± SD (n = 3), read-out: Potency (EC50 nM) HeLa
[4] = NCI-H2122, Example 18, Mean ± SD (n = 3), read-out: Potency (EC50 nM) H2122
[5] = Homo sapiens, HeLa, Mean ± SD (n = 3), read-out: Potency (EC50 nM) HeLa
[6] = Homo sapiens, A549, Mean ± SD (n = 3), read-out: Potency (EC50 nM) A549

EC50 (H1563): > 10 µM
Structure (SMILES): CCN(CC)c1ccc(C#N)cc1[N+](=O)[O-]
EC50 (A549 cells; [1]): > 10000 nM

EC50 (H1563): > 10 µM
Structure (SMILES): O=C(O)Cc1n[nH]c(=O)c2ccccc12
EC50 (A549 cells; [1]): > 10000 nM

EC50 (H1563): > 10 µM
Structure (SMILES): O=C1CCC(c2ccccc2)=NN1
EC50 (A549 cells; [1]): > 10000 nM

EC50 (COLO741 cells; [2]): 20.2 ± 4.8 nM
EC50 (H2122 cells; [4]): 31.4 ± 10.8 nM
Structure (SMILES): C[C@@H]1CC(=O)NN=C1c1ccc(N2CCOCC2)cc1 [drawing 218]
EC50 (HeLa cells; [3]): 13.1 ± 1.9 nM

EC50 (H1563): 0.04 µM
EC50 (H2122 cells; NCI-H2122, n = 2, read-out: Potency (EC50) H2122): 11 nM
Structure (SMILES): CC1CC(=O)NN=C1c1ccc(NCCO)c([N+](=O)[O-])c1 (centres unmarked)
EC50 (HeLa cells; Homo sapiens, HeLa, n = 2, read-out: Potency (EC50) HeLa): 4 nM
EC50 (A549 cells; [1]): > 10000 nM

EC50 (H1563): > 10 µM
Structure (SMILES): CN/C(=N\c1ccc(C2=NNC(=O)CC2C)cc1)NC#N (centres unmarked) [drawing 237]
EC50 (A549 cells; [1]): > 10000 nM

EC50 (COLO741 cells; [2]): 19.8 ± 1.8 nM
EC50 (H2122 cells; [4]): 37.8 ± 12.3 nM
Structure (SMILES): C[C@@H]1CC(=O)NN=C1c1ccc(-c2cncnc2)cc1 [drawing 219]
EC50 (HeLa cells; [3]): 12.7 ± 2.2 nM

EC50 (H1563): 0.04 µM
Structure (SMILES): CC1CC(=O)NN=C1c1ccc(N(C)C)c([N+](=O)[O-])c1 (centres unmarked)
EC50 (A549 cells; [1]): > 10000 nM

EC50 (H1563): > 10 µM
Structure (SMILES): CCN(CC)c1ccc(C(=O)O)cc1[N+](=O)[O-]
EC50 (A549 cells; [1]): > 10000 nM

EC50 (COLO741 cells; COLO-741, 48 h, 48 hrs, Cell Titer Glo, read-out: EC50 COLO741): > 1000 nM
EC50 (H2122 cells; NCI-H2122, 48 h, 48 hrs, Cell Titer Glo, read-out: EC50 H2122): > 1000 nM
Structure (SMILES): CCN1N=C(c2ccc(N(CC)CC)cc2)[C@H](C)CC1=O [drawing 140]
EC50 (HeLa cells; Homo sapiens, HeLa, 48 h, Cell Titer Glo, read-out: EC50 HeLa): > 10000 nM
EC50 (A549 cells; Homo sapiens, A549, 48 hrs, Cell Titer Glo, read-out: EC50 A549): > 10000 nM

The remaining lines, values behind:

Structure (SMILES): C[C@@H]1CC(=O)NN=C1c1ccc(NN=C(C#N)C#N)cc1 [Levosimendan, reference compound]
IC50 (PDE3): 0.0024 µM
EC50 (HeLa cells; Homo sapiens, HeLa, known PDE3 inhibitors, Mean (n = 3), read-out: Potency (EC50 nM) HeLa): > 10000 nM
EC50 (A549 cells; Homo sapiens, A549, known PDE3 inhibitors, Mean (n = 3), read-out: Potency (EC50 nM) A549): > 10000 nM

Structure (SMILES): CC1CC(=O)NN=C1c1ccc(N)cc1 (centres unmarked)
EC50 (A549 cells; [1]): > 10000 nM
EC50 (H1563): > 10 µM

Structure (SMILES): CC1CC(=O)NN=C1c1ccc(/N=C\c2ccccc2[N+](=O)[O-])cc1 (centres unmarked)
EC50 (A549 cells; [1]): > 10000 nM
EC50 (H1563): > 10 µM

Structure (SMILES): CCN(CC)c1ccc(C(=O)Nc2cccc(OC)c2)cc1[N+](=O)[O-]
EC50 (A549 cells; [1]): > 10000 nM
EC50 (H1563): > 10 µM

Structure (SMILES): C[C@@H]1CC(=O)NN=C1c1ccc(N2CCCC2=O)cc1 [drawing 183]
EC50 (HeLa cells; Mean ± SD (n = 3), read-out: Potency (EC50 nM) HeLa): > 1000 nM
EC50 (A549 cells; Mean ± SD (n = 3), read-out: Potency (EC50 nM) A549): > 10000 nM

Structure (SMILES): CC(=O)Nc1ccc(C2=NNC(=O)CC2C)cc1 (centres unmarked) [drawing 173]
EC50 (HeLa cells; [5]): > 1000 nM
EC50 (A549 cells; [6]): > 10000 nM

Structure (SMILES): CC1(C)C(=O)NN=C1c1ccc(N2CCOCC2)cc1
EC50 (HeLa cells; [5]): > 1000 nM
EC50 (A549 cells; [6]): > 10000 nM
